In data set [1] the test system is osteoclasts. The experiment in a line: CalciFluor assay (OsteoAssay): calcium released by osteoclast-mediated resorptive activity. Type of data set: cell-based. An excerpt: A CalciFluor assay is used to measure the calcium that is released as a result of osteoclast-mediated resorptive activity. The first run of this assay looked at three new inventive compounds as well as establishing the data on the internal controls, (+/−)-promethazine and Alendronate (bis-phosphonate). The preliminary data on standards and inventive analogs is provided in Table 3, some general SAR (structure-activity relationships) trends are apparent.
The assay is optimized and dose-response data is generated on the Alendronate and Promethazine controls.

For the next data set, the target named is T1, H1 receptor (Homo sapiens, UniProt P35367).
T1 construct: endogenous in cells; host or cells: HUVEC
T1 sequence (P35367 whole entry): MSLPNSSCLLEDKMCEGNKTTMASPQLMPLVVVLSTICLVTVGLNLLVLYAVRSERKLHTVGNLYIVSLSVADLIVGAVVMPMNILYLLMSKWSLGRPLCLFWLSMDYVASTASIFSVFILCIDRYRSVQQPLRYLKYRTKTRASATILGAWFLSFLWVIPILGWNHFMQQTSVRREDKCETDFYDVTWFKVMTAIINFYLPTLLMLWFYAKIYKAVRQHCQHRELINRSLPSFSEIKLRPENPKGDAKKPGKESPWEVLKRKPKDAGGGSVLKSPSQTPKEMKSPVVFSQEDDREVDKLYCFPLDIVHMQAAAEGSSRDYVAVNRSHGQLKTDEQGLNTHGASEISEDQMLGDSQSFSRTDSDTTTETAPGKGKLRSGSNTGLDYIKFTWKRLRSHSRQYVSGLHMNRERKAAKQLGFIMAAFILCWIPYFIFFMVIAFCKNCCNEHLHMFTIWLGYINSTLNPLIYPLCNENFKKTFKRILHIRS
Briefly: Histamine-stimulated IL-6 production in HUVEC cells (RT-PCR). The note with it: for Histamine-stimulated IL-6 production reduced to fraction of that observed with histamine stimulation: ethopropazine concentration 10^−4 M; for Anti-histamine activity (IL-6 production assay), in words: 10^−5 M. The data set is classed as cell-based. The method, then: In the present studies, HUVEC cells were plated and grown to confluence in 6-well plates. […] The total RNA was isolated using Tri-reagent and subjected to reverse transcription polymerase chain reaction (RT-PCR™) analysis of IL-6 production using semi-quantitative analysis against HPRT expression (control gene).

The test system of data set [2] is osteoclasts. The note with it: peak of resorption (4 days), n = 8; cited from earlier work.
Data set [3] is described as follows: Cytotoxicity testing of promethazine enantiomers. Type of data set: cell-based.
Data set [4] relates to osteoclasts. The experiment in a line: Osteoclast resorption assay on mammoth tusk slices. The data set is classed as cell-based. The method, then: During this time, osteoclasts mature and degrade bone matrix. At the end of the incubation period, cells are removed, the specimen examined by SEM and the absorption area/slice is quantitated versus control (untreated) slices.

In data set [5] the test system is ovariectomized rats (OVX). As to conditions: OVX + PROM rats, cited from earlier work.
The conditions of data set [6]: post-menopausal women, 50 mg/day promethazine associated with estrogens; cited from earlier work.
Setting [7] is: first run, preliminary data, read-out: OsteoAssay IC50.

Read-outs that look alike come from different tables or passages of the source.

As to `C[C@H](CN1c2ccccc2Sc2ccc(Cl)cc21)N(C)C` [(R)-l-(2-chloro-10H-phenothiazin-10-yl)-N,N-dimethylpropan-2-amine], in the data set on osteoclasts [1] (setting [7]), the IC50 – broadly, the concentration needed to halve the response being measured – was above 10 µM.
Turning to `CCN(CC)C(C)CN1c2ccccc2Sc2ccccc21.Cl` (single isomer, unassigned) [ethopropazine (−) enantiomer], on H1 receptor (ethopropazine), the “Effectiveness relative to the (+) enantiomer (IL-6 reduction)” value is “four times” and the “Effectiveness relative to the racemate (IL-6 reduction)” value is on record as “approximately twice”. The “Histamine-stimulated IL-6 production reduced to fraction of that observed with histamine stimulation” value on H1 receptor was “one tenth”.
Turning to `COc1ccc(CN(CCN(C)C)c2ccccn2)cc1` [Mepyramine, mepyramine], in the data set on osteoclasts [2], the “Active Osteoclasts (on-bone cells)” value is recorded as 9.6 ± 0.7; the “Inactive Osteoclasts (off-bone cells)” value is 5.7 ± 0.8; the “OBIT (OBI, mean interface of the active cells with the bone surface)” value is 18.4 ± 0.8; the RS is 17.6 ± 1.3. The “Total Osteoclasts” value in the data set on osteoclasts [2] is listed as 15.3 ± 1.5.
In the case of `COc1ccc2c(c1)N(C[C@@H](C)N(C)C)c1ccccc1S2` [(R)-l-(2-methoxy-10H-phenothiazin-10-yl)-N,N-dimethylpropan-2-amine], in the data set on osteoclasts [1] (setting [7]), the IC50 is below 1 µM.
As to `C[C@@H](CN1c2ccccc2Sc2ccccc21)N(C)C` [promethazine (−) enantiomer, (S)-N,N-dimethyl-1-(10H-phenothiazin-10-yl)propan-2-amine], the “Cytotoxicity compared to the racemic mixture” value in data set [3] was “the same was also true”.
For the compound `CC(CN(C)C)CN1c2ccccc2Sc2ccccc21` (single isomer, unassigned) [trimeprazine (+) enantiomer], on H1 receptor, the “Anti-histamine activity (IL-6 production assay), in words” value (“Anti-histamine activity” for short) is on record as “so effective that resolution of the more active enantiomer could not be determined”.
As to `C[C@H](CN1c2ccccc2Sc2ccc(C(F)(F)F)cc21)N(C)C` [(R)-N,N-dimethyl-1-(2-(trifluoromethyl)-10H-phenothiazin-10-yl)propan-2-amine], in the data set on osteoclasts [1] (setting [7]), the IC50 is above 10 µM.
Regarding `CC(CN(C)C)CN1c2ccccc2Sc2ccccc21` (racemic) [trimeprazine racemate, trimeprazine], on H1 receptor, the “Anti-histamine activity” value is reported as “so effective that resolution of the more active enantiomer could not be determined”.
As for `CCN(CC)C(C)CN1c2ccccc2Sc2ccccc21` (racemic) [Ethopropazine racemate, ethopropazine], on H1 receptor, the “Anti-histamine activity” value was “so effective that resolution of the more active enantiomer could not be determined” and the “Histamine-stimulated IL-6 production reduced to fraction of that observed with histamine stimulation” value is recorded as “approximately one fifth”.
`NCCCC(O)(P(=O)(O)O)P(=O)(O)O` [Alendronate, alendronate]: the 50% inhibitory concentration (IC50) with osteoclasts [1] (optimized assay, dose response, FIG. 13, read-out: IC50, calcium release by osteoclast-mediated resorption) is around 10 µM.
`C[C@H](CN1c2ccccc2Sc2ccccc21)N(C)C` [(+)-PMZ, (R)-N,N-dimethyl-1-(10H-phenothiazin-10-yl)propan-2-amine]: in the data set with osteoclasts [4], the “Concentration needed for 90% inhibition of bone resorption compared with the racemate” value is listed as “two orders of magnitude lower”; the “Efficacy for osteoclast inhibition compared with the racemate and the (−) enantiomer” value is “threefold higher”. Moreover, the inhibition (as a rule, how much of the control response was suppressed) at 0.1 µM with osteoclasts [4] (Osteoclast, 336 h, 10^−7 M, 14 days, read-out: Inhibition of bone resorption) was found to be 90%. Further, the “Cytotoxicity compared to the racemic mixture” value in data set [3] is recorded as “did not have any significant increase in cytotoxicity”. Besides, the IC50 in the data set on osteoclasts [1] (setting [7]) is below 1 µM.
As to `CN/C(=N/CCSCc1nc[nH]c1C)NC#N` [Cimetidine, cimetidine], in the data set with osteoclasts [2], the “Active Osteoclasts (on-bone cells)” value is 6.2 ± 0.8; the “Inactive Osteoclasts (off-bone cells)” value is on record as 3.1 ± 0.7; the “OBIT (OBI, mean interface of the active cells with the bone surface)” value was 24.7 ± .9; the RS was 14.4 ± 2.0. Moreover, the “Total Osteoclasts” value in the data set on osteoclasts [2] is recorded as 9.4 ± 1.4.
For `CCN(CC)C(C)CN1c2ccccc2Sc2ccccc21.Cl` (single isomer, unassigned) [ethopropazine (+) enantiomer], at H1 receptor, the “Anti-histamine activity” value was “so effective that resolution of the more active enantiomer could not be determined” and the “Histamine-stimulated IL-6 production reduced to fraction of that observed with histamine stimulation” value was “approximately two fifths”.
Regarding `CC(CN1c2ccccc2Sc2ccccc21)N(C)C` (racemic) [Promethazine racemate, promethazine], in data set [5] (5th lumbar vertebra), the Vertebra mg is reported as 253 ± 24 mg and the Vertebra mm is 6.3 ± 0.3 mm. In data set [5], the “Cn-BV-TV (femur cancellous bone volume)” value is given as 12.5 ± 5.6%, the “F-BMC (femur bone mineral content)” value is 336 ± 30 mg, the F-BMC/BW is 1.06 ± 0.06 mg/g and the “F-BMD (femur bone mineral density)” value is 125 ± 14 mg/cm^2. In addition, in data set [5], the Femur mg is 716 ± 38 mg, the Femur mm was 34.5 ± 0.7 mm, the “Tb-N (trabecular number)” value is reported as 2.1 ± 0.7 mm^−1 and the “Tb-Sp (trabecular separation)” value was 477 ± 215 μm. In data set [5], the “Tb-Th (trabecular thickness)” value is 57.5 ± 7.3 μm, the “V-BMC (5th lumbar vertebral bone mineral content)” value is listed as 100 ± 10 mg, the “V-BMD (5th lumbar vertebral bone mineral density)” value is 108 ± 6 mg/cm^2 and the “Z score F-BMC” value was −1.7 ± 0.9. Also, in data set [6], the “Annual gain in spinal bone mass” value is recorded as 3%.

The values are drawn from patent publication US20100285087A1, “SINGLE PHENOTHIAZINE ENANTIOMERS AS AGENTS FOR THE PREVENTION OF BONE LOSS” (The University Of Texas, priority 2003, published 2010).
